Experimental data as given in publication PMC6270420, “Antibacterial Activity of Salicylanilide 4-(Trifluoromethyl)benzoates” (Molecules, 2013).
Where two headings read alike, the source gives them in different places.

Test system: HepG2 cells
Test: Cytotoxicity evaluation (CellTiter 96 MTS)
Format: cell-based, human
Settings: read-out: IC50 HepG2
Protocol: Seven esters and their parent salicylanilides with the most robust antimicrobial activity were tested for cytotoxicity in the human hepatocellular liver carcinoma cell line HepG2 (passages 21–24; ECACC, Salisbury, UK) using a standard colorimetric method measuring a tetrazolium salt reduction (CellTiter(R) 96 AQueous One Solution Assay, Promega G3580, Madison, WI, USA).
The cells were routinely cultured in Minimum Essentials Eagle Medium (Sigma-Aldrich, Darmstadt, Germany) supplemented with 10% foetal bovine serum (PAA; Biotech, Prague, Czech Republic), 1% of L-glutamine solution (Sigma-Aldrich), and non-essential amino acids solution (Sigma-Aldrich) in a humidified atmosphere containing 5% CO2 at 37 °C. For subculturing, the cells were harvested after trypsin/EDTA (Sigma-Aldrich) treatment at 37 °C. The cells treated with the tested substances were used as experimental groups. Untreated HepG2 cells were used as control groups.
The cells were seeded in density 1 × 10^4 cells per well in a 96-well plate with microscopic control. Next day, the cells were treated with each of the tested substances. […] The most of the tested compounds were prepared in incubation concentrations of 0.01–20 µM in triplicates. 4-(Trifluoromethyl)benzoic acid was applied in the concentrations of 10–4,000 µM in triplicates. The following types of controls were included: determination of 100% viability and 0% viability (the cells treated by 10% DMSO), no cell control and vehiculum controls. These checking samples were prepared in triplicates.
The treated cells were incubated together with controls at 37 °C for 24 h in 5% CO2 atmosphere. After this time reagent from the kit CellTiter 96 AQueous One Solution Cell Proliferation Assay was added. The CellTiter 96 assay is based on the reduction of tetrazolium salt MTS [3-(4,5-dimethylthiazol-2-yl)-5-(3-carboxymethoxyphenyl)-2-(4-sulfophenyl)-2H-tetrazolium] to water-soluble formazan dye by metabolically active cells. The reduction of the reagent is attributed to availability of NADH or NADPH. The decline in levels of these metabolically important compounds in the cell causes that the production of formazan is reduced. The tested plate was incubated for 2 h at 37 °C and 5% CO2 and after this time, the absorbance was recorded at 490 nm using a 96-well plate reader (TECAN, Infinite M200, Grödig, Austria).
The results were expressed as inhibitory concentration which is necessary to inhibit cell viability to 50% from the maximal (control) viability (IC50). A standard toxicological parameter IC50 was calculated in each of the tested substances using GraphPad Prism software (version 5.02; GraphPad Software Inc., San Diego, CA, USA).

SMILES: O=C(Nc1ccc(Cl)c(Cl)c1)c1ccc(Cl)cc1O [SAL-2]
- IC50 (24 h, cytotoxicity): 1800 nM

SMILES: O=C(Nc1cccc(Br)c1)c1cc(Cl)ccc1O [SAL-3]
- IC50 (24 h, cytotoxicity): 1540 nM

SMILES: O=C(Nc1ccc(Br)cc1)c1ccc(Cl)cc1O [SAL-4]
- IC50 (24 h, cytotoxicity): 1980 nM

SMILES: O=C(Nc1ccc(C(F)(F)F)cc1)c1cc(Cl)ccc1O [SAL-5, 5-chloro-2-hydroxy-N-[4-(trifluoromethyl)phenyl]benzamide]
- IC50 (Homo sapiens, HepG2, 24 h, cytotoxicity): 360 nM

SMILES: O=C(Nc1ccc(C(F)(F)F)cc1)c1ccc(Cl)cc1O [SAL-6]
- IC50 (24 h, cytotoxicity): 690 nM

SMILES: O=C(Nc1ccc(C(F)(F)F)cc1)c1cc(Br)ccc1O [SAL-7, 5-Bromo-2-hydroxy-N-[4-(trifluoromethyl)phenyl]benzamide]
- IC50 (Homo sapiens, HepG2, 24 h): 1670 nM
